How the values were obtained:
Format in all cases: in vivo
[1] = tested on: Italian ryegrass (Lolium multiflorum); test: Test A preemergence, visual injury rating; details: Lolium multiflorum, pre-emergence, 240 h, 0 to 100 scale (0 no effect, 100 complete control), read-out: Ryegrass, Italian plant response rating
Outline: (§1)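 Greenhouse pot test, loam/sand soil. Formulation: non-phytotoxic solvent mix plus surfactant. Pre: directed spray onto soil after sowing. Post: plants at 1–2 leaf, 2–10 cm. Rated visually vs untreated controls at ~10 d, 0 (no effect) to 100 (complete control).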

[2] = tested on: barnyardgrass (Echinochloa crus-galli); test: Test A preemergence, visual injury rating; details: Echinochloa crus-galli, pre-emergence, 240 h, 0 to 100 scale (0 no effect, 100 complete control), read-out: Barnyardgrass plant response rating
Outline: as §1

[3] = tested on: giant foxtail (Setaria faberii); test: Test A preemergence, visual injury rating; details: Setaria faberi, pre-emergence, 240 h, 0 to 100 scale (0 no effect, 100 complete control), read-out: Foxtail, Giant plant response rating
Outline: as §1

[4] = tested on: ragweed (common ragweed, Ambrosia elatior); test: Test A preemergence, visual injury rating; details: Ambrosia artemisiifolia, pre-emergence, 240 h, 0 to 100 scale (0 no effect, 100 complete control), read-out: Ragweed plant response rating
Outline: as §1

[5] = tested on: blackgrass (Alopecurus myosuroides); test: Test C preemergence, plant response rating; details: Alopecurus myosuroides, pre-emergence, Preemergence
Outline: (§2)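 After sowing in loam–sand blend or silt loam, pots were sprayed preemergence; separately grown 1- to 4-leaf plants were sprayed postemergence. Following 13 to 15 d under greenhouse conditions, injury was rated visually on a 0 to 100 scale.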

[6] = tested on: corn (Zea mays); test: Test C preemergence, plant response rating; details: Zea mays, pre-emergence, Preemergence
Outline: as §2

[7] = tested on: crabgrass, large (large crabgrass, Digitaria sanguinalis); test: Test C preemergence, plant response rating; details: Digitaria sanguinalis, pre-emergence, Preemergence
Outline: as §2

[8] = tested on: foxtail, giant (giant foxtail, Setaria faberii); test: Test C preemergence, plant response rating; details: Setaria faberi, pre-emergence, Preemergence
Outline: as §2

[9] = tested on: lambsquarters (Chenopodium album); test: Test C preemergence, plant response rating; details: Chenopodium album, pre-emergence, Preemergence
Outline: as §2

[10] = tested on: morningglory (Ipomoea coccinea); test: Test C preemergence, plant response rating; details: Ipomoea, pre-emergence, Preemergence
Outline: as §2

[11] = tested on: nutsedge, yellow (yellow nutsedge, Cyperus esculentus); test: Test C preemergence, plant response rating; details: Cyperus, pre-emergence, Preemergence
Outline: as §2

[12] = tested on: oilseed rape (Brassica napus); test: Test C preemergence, plant response rating; details: Brassica napus, pre-emergence, Preemergence
Outline: as §2

[13] = tested on: ragweed (common ragweed, Ambrosia elatior); test: Test C preemergence, plant response rating; details: Ambrosia artemisiifolia, pre-emergence, Preemergence
Outline: as §2

[14] = tested on: ryegrass, Italian (Italian ryegrass, Lolium multiflorum); test: Test C preemergence, plant response rating; details: Lolium multiflorum, pre-emergence, Preemergence
Outline: as §2

[15] = tested on: soybean (Glycine max); test: Test C preemergence, plant response rating; details: Glycine max, pre-emergence, Preemergence
Outline: as §2

[16] = tested on: velvetleaf (Abutilon theophrasti); test: Test C preemergence, plant response rating; details: Abutilon theophrasti, pre-emergence, Preemergence
Outline: as §2

[17] = tested on: waterhemp (common waterhemp, Amaranthus rudis); test: Test C preemergence, plant response rating; details: Amaranthus tuberculatus, pre-emergence, Preemergence
Outline: as §2

[18] = tested on: wheat (winter wheat, Triticum aestivum); test: Test C preemergence, plant response rating; details: Triticum aestivum, pre-emergence, Preemergence
Outline: as §2

O=C(OCCCC(F)(F)F)c1c(Br)cccc1Oc1ncc(Cl)cn1 [Compound 20, 4,4,4-trifluorobutyl 2-bromo-6-[(5-chloro-2-pyrimidinyl)oxy]benzoate]
pest or weed control at 125 g/ha ([1]; 125 g ai/ha): 30% | pest or weed control at 500 g/ha ([1]; 500 g ai/ha): 90% | pest or weed control at 125 g/ha ([2]; 125 g ai/ha): 100% | pest or weed control at 500 g/ha ([2]; 500 g ai/ha): 100% | pest or weed control at 125 g/ha ([3]; 125 g ai/ha): 100% | pest or weed control at 500 g/ha ([3]; 500 g ai/ha): 100% | pest or weed control at 125 g/ha ([4]; 125 g ai/ha): 0% | pest or weed control at 500 g/ha ([4]; 500 g ai/ha): 0% | pest or weed control at 62 g/ha ([5]; 62 g ai/ha, scale of 0 to 100): 85% | pest or weed control at 125 g/ha ([5]; 125 g ai/ha, scale of 0 to 100): 100% | pest or weed control at 16 g/ha ([5]; 16 g ai/ha, scale 0 to 100): 0% | pest or weed control at 31 g/ha ([5]; 31 g ai/ha, scale 0 to 100): 40% | Corn plant response rating (crop injury, 0 = no effect, 100 = complete kill) at 62 g/ha ([6]; 62 g ai/ha, scale of 0 to 100): 0% | Corn plant response rating (crop injury, 0 = no effect, 100 = complete kill) at 125 g/ha ([6]; 125 g ai/ha, scale of 0 to 100): 30% | Corn plant response rating (crop injury, 0 = no effect, 100 = complete kill) at 16 g/ha ([6]; 16 g ai/ha, scale 0 to 100): 0% | Corn plant response rating (crop injury, 0 = no effect, 100 = complete kill) at 31 g/ha ([6]; 31 g ai/ha, scale 0 to 100): 0% | pest or weed control at 62 g/ha ([7]; 62 g ai/ha, scale of 0 to 100): 98% | pest or weed control at 125 g/ha ([7]; 125 g ai/ha, scale of 0 to 100): 100% | pest or weed control at 16 g/ha ([7]; 16 g ai/ha, scale 0 to 100): 5% | pest or weed control at 31 g/ha ([7]; 31 g ai/ha, scale 0 to 100): 50% | pest or weed control at 62 g/ha ([8]; 62 g ai/ha, scale of 0 to 100): 90% | pest or weed control at 125 g/ha ([8]; 125 g ai/ha, scale of 0 to 100): 100% | pest or weed control at 16 g/ha ([8]; 16 g ai/ha, scale 0 to 100): 35% | pest or weed control at 31 g/ha ([8]; 31 g ai/ha, scale 0 to 100): 50% | pest or weed control at 125 g/ha ([9]; 125 g ai/ha, scale of 0 to 100): 90% | pest or weed control at 16 g/ha ([9]; 16 g ai/ha, scale 0 to 100): 0% | pest or weed control at 31 g/ha ([9]; 31 g ai/ha, scale 0 to 100): 5% | pest or weed control at 62 g/ha ([9]; 62 g ai/ha, scale 0 to 100): 10% | pest or weed control at 125 g/ha ([10]; 125 g ai/ha, scale of 0 to 100): 10% | pest or weed control at 16 g/ha ([10]; 16 g ai/ha, scale 0 to 100): 0% | pest or weed control at 31 g/ha ([10]; 31 g ai/ha, scale 0 to 100): 0% | pest or weed control at 62 g/ha ([10]; 62 g ai/ha, scale 0 to 100): 5% | pest or weed control at 125 g/ha ([11]; 125 g ai/ha, scale of 0 to 100): 10% | pest or weed control at 16 g/ha ([11]; 16 g ai/ha, scale 0 to 100): 0% | pest or weed control at 31 g/ha ([11]; 31 g ai/ha, scale 0 to 100): 0% | pest or weed control at 62 g/ha ([11]; 62 g ai/ha, scale 0 to 100): 0% | plant injury at 125 g/ha ([12]; 125 g ai/ha, scale of 0 to 100): 50% | plant injury at 16 g/ha ([12]; 16 g ai/ha, scale 0 to 100): 0% | plant injury at 31 g/ha ([12]; 31 g ai/ha, scale 0 to 100): 0% | plant injury at 62 g/ha ([12]; 62 g ai/ha, scale 0 to 100): 50% | pest or weed control at 125 g/ha ([13]; 125 g ai/ha, scale of 0 to 100): 0% | pest or weed control at 16 g/ha ([13]; 16 g ai/ha, scale 0 to 100): 0% | pest or weed control at 31 g/ha ([13]; 31 g ai/ha, scale 0 to 100): 0% | pest or weed control at 62 g/ha ([13]; 62 g ai/ha, scale 0 to 100): 0% | pest or weed control at 125 g/ha ([14]; 125 g ai/ha, scale of 0 to 100): 70% | pest or weed control at 16 g/ha ([14]; 16 g ai/ha, scale 0 to 100): 0% | pest or weed control at 31 g/ha ([14]; 31 g ai/ha, scale 0 to 100): 0% | pest or weed control at 62 g/ha ([14]; 62 g ai/ha, scale 0 to 100): 30% | plant injury at 125 g/ha ([15]; 125 g ai/ha, scale of 0 to 100): 10% | plant injury at 16 g/ha ([15]; 16 g ai/ha, scale 0 to 100): 0% | plant injury at 31 g/ha ([15]; 31 g ai/ha, scale 0 to 100): 0% | plant injury at 62 g/ha ([15]; 62 g ai/ha, scale 0 to 100): 0% | pest or weed control at 125 g/ha ([16]; 125 g ai/ha, scale of 0 to 100): 50% | pest or weed control at 16 g/ha ([16]; 16 g ai/ha, scale 0 to 100): 0% | pest or weed control at 31 g/ha ([16]; 31 g ai/ha, scale 0 to 100): 0% | pest or weed control at 62 g/ha ([16]; 62 g ai/ha, scale 0 to 100): 5% | pest or weed control at 125 g/ha ([17]; 125 g ai/ha, scale of 0 to 100): 98% | pest or weed control at 16 g/ha ([17]; 16 g ai/ha, scale 0 to 100): 30% | pest or weed control at 31 g/ha ([17]; 31 g ai/ha, scale 0 to 100): 85% | pest or weed control at 62 g/ha ([17]; 62 g ai/ha, scale 0 to 100): 100% | plant injury at 125 g/ha ([18]; 125 g ai/ha, scale of 0 to 100): 5% | plant injury at 16 g/ha ([18]; 16 g ai/ha, scale 0 to 100): 0% | plant injury at 31 g/ha ([18]; 31 g ai/ha, scale 0 to 100): 0% | plant injury at 62 g/ha ([18]; 62 g ai/ha, scale 0 to 100): 0%

— US11053204B2, “Pyrimidinyloxy benzene derivatives as herbicides” (FMC Corporation, priority 2015, dated 2021)
